pKi: −log10 of the molar value.
How the values were obtained:
[1] = target: T1, human recombinant GR (Homo sapiens, UniProt P04150); test: Human Glucocorticoid Receptor (GR) Fluorescence Polarisation (FP) Binding Assay; details: Ki from IC50 by ligand depletion correction; displacement of Fluorome GS Red
T1 construct: purchased PanVera P2812
T1 sequence (P04150 1-777): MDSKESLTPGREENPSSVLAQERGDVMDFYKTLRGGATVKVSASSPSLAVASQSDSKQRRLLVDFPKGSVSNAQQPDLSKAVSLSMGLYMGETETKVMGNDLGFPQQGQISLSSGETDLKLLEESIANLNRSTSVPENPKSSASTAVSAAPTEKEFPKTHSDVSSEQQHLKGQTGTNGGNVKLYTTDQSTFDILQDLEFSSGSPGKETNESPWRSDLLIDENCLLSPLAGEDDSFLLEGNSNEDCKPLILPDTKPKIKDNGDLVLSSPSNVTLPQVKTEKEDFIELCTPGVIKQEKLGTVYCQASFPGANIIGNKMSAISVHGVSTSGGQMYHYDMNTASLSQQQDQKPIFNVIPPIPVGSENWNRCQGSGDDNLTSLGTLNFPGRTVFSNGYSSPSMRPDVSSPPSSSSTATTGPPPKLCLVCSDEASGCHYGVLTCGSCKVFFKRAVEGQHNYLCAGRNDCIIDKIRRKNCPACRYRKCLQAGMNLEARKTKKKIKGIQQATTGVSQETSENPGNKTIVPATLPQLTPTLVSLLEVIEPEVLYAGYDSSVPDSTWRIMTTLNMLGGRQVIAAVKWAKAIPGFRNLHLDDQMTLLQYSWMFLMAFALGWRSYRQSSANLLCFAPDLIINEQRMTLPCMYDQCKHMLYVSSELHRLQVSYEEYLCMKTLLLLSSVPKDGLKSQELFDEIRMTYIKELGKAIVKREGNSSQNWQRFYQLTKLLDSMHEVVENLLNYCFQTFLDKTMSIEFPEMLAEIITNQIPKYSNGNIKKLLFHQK
Protocol: The following is a description of a FP assay for measuring compound inhibition of labelled glucocorticoid binding to the human recombinant GR.
The binding affinity of test compounds was determined using a FP binding assay using human recombinant GR (PanVera P2812) and a fluorescent labelled glucocorticoid ligand (Fluorome GS Red) (PanVera P2894). The presence of inhibitors prevents the formation of a GS Red/GR complex resulting in a decrease in the measured polarisation value. The change in polarisation value in the presence of test compounds is used to calculate the binding affinity of the compound for GR.
This assay was performed in 384 well, black, round-bottom, polypropylene micro titre plates in a final volume of 20 μl. The assay contained 5 μl 1 nM GR (final concentration), 5 μl 0.5 nM Fluorome GS Red (final concentration) in the presence of 10p test compounds. Positive control wells (high polarisation) receive, 10 μl 2% (v:v) DMSO vehicle (1% (v/v) final concentration)+5 μl 1 nM GR and 5 μl 0.5 nM Fluorome GS Red. […] Assay blank background wells (used for normalisation) receive 15 μl 1×GS screening buffer+5 μl GR.
For the IC50 determination (concentration of compound that displaces 50% of the bound GS Red), compounds were tested at eight different concentrations in duplicate in two independently performed experiments. Compounds were prepared as solubilised solids at 10 mM in DMSO. On the day of assay, an 8 point half-log serial dilution (55 μl DMSO+25 μl compound solution) was prepared. A 1:50 dilution (1 μl compound solution+49 μl 1×GR screening buffer) was prepared for each compound. The compounds were prepared at 2× final assay concentration.
The plates were mixed and incubated for 4 hour at room temperature. FP was measured using an Envision Excite plate reader with 535 nm excitation and 590 nm emission interference filters.
Milli-polarisation (mP) values were calculated using the below equation: mP=1000*(S−G*P)/(S+G*P) where S and P are assay blank background subtracted fluorescence units, G=G-factor (1.07).
Compound IC50 values were calculated by plotting a [compound] v. % inhibition curve and fitting the data to a 4-parameter logistic fit equation.
10×GR screening buffer (100 mM potassium phosphate pH 7.4, 200 mM Na2MoO4, 1 mM EDTA, 20% (v/v) DMSO). To prepare 1×GR screening buffer, combine 1 ml 10×GR screening buffer (PanVera P2814)+1 ml stabilising peptide (PanVera P2815)+7.95 ml 4° C. MQ water. Add 50p 1M DTT, vortex and place on ice until use.

[2] = target: T2, glucocorticoid receptor (Homo sapiens, UniProt P04150); test: HepG2 Tyrosine Aminotransferase (TAT) Assay; assay type: cell-based
T2 construct: endogenous in cells; host or cells: HepG2
T2 sequence (P04150 1-777): T1 sequence (P04150 1-777)
Protocol: Glucocorticoid mediated activation of TAT occurs by transactivation of glucocorticoid response elements in the TAT promoter by glucocorticoid receptor-agonist complex.
HepG2 cells were cultured using MEME media supplemented with 10% (v/v) foetal bovine serum; 2 mM L-glutamine and 1% (v/v) NEAA at 37° C., 5%/95% (v/v) CO2/air.
Compounds were serially half log diluted in 100% (v/v) dimethylsulphoxide from a 10 mM stock.
HepG2 cells were then lysed with 30 μl of cell lysis buffer containing a protease inhibitor cocktail for 15 minutes at 4° C. […] After 2 hours incubation at 37° C. the reaction was terminated by the addition of 15 μl of 10 M aqueous potassium hydroxide solution, and the plates incubated for a further 30 minutes at 37° C.
[compound] and fitting the data to a 4 parameter logistic equation.

SMILES	pKi [1]	pKi [2]
Cc1ccnc(C(=O)[C@]23Cc4cnn(-c5ccc(F)cc5)c4C[C@@H]2CCN(S(=O)(=O)c2cnn(C)n2)C3)c1 [Example 2R, ((4aR,8aS)-1-(4-fluorophenyl)-6-((2-methyl-2H-1,2,3-triazol-4-yl)sulfonyl)-4,4a,5,6,7,8,8a,9-octahydro-1H-pyrazolo[3,4-g]isoquinolin-4a-yl)(4-methylpyridin-2-yl)methanone]	> 9.30	> 7.70
O=C(c1ccccn1)[C@]12Cc3cnn(-c4ccc(F)cc4)c3C[C@@H]1CCN(S(=O)(=O)c1ccc(Cl)c(Cl)c1)C2 [Example 1B, ((4aR,8aS)-6-((3,4-dichlorophenyl)sulfonyl)-1-(4-fluorophenyl)-4,4a,5,6,7,8,8a,9-octahydro-1H-pyrazolo[3,4-g]isoquinolin-4a-yl)(pyridin-2-yl)methanone]	< 9.00	7.00 to 7.70
CCCn1ncc(S(=O)(=O)N2CC[C@H]3Cc4c(cnn4-c4ccc(F)cc4)C[C@]3(C(=O)c3ccccn3)C2)n1 [Example 2A, ((4aR,8aS)-1-(4-fluorophenyl)-6-((2-propyl-2H-1,2,3-triazol-4-yl)sulfonyl)-4,4a,5,6,7,8,8a,9-octahydro-1H-pyrazolo[3,4-g]isoquinolin-4a-yl)(pyridin-2-yl)methanone]	> 9.30	> 7.70
Cn1cc(S(=O)(=O)N2CC[C@H]3Cc4c(cnn4-c4ccc(F)cc4)C[C@]3(C(=O)c3cc(C(F)(F)F)ccn3)C2)nn1 [Example 2P, ((4aR,8aS)-1-(4-fluorophenyl)-6-((1-methyl-1H-1,2,3-triazol-4-yl)sulfonyl)-4,4a,5,6,7,8,8a,9-octahydro-1H-pyrazolo[3,4-g]isoquinolin-4a-yl)(4-(trifluoromethyl)pyridin-2-yl)methanone]	< 9.00	7.00 to 7.70
O=C(c1nccs1)[C@]12Cc3cnn(-c4ccc(F)cc4)c3C[C@@H]1CCN(S(=O)(=O)c1cccc(C(F)(F)F)n1)C2 [Example 2AG, ((4aR,8aS)-1-(4-fluorophenyl)-6-((6-(trifluoromethyl)pyridin-2-yl)sulfonyl)-4,4a,5,6,7,8,8a,9-octahydro-1H-pyrazolo[3,4-g]isoquinolin-4a-yl)(thiazol-2-yl)methanone]	9.00 to 9.30	7.00 to 7.70
O=C(c1ccccn1)[C@]12Cc3cnn(-c4ccc(F)cc4)c3C[C@@H]1CCN(S(=O)(=O)c1ccc(F)c(F)c1)C2 [Example 1C, ((4aR,8aS)-6-((3,4-difluorophenyl)sulfonyl)-1-(4-fluorophenyl)-4,4a,5,6,7,8,8a,9-octahydro-1H-pyrazolo[3,4-g]isoquinolin-4a-yl)(pyridin-2-yl)methanone]	< 9.00	7.00 to 7.70
O=C(c1cscn1)[C@]12Cc3cnn(-c4ccc(F)cc4)c3C[C@@H]1CCN(S(=O)(=O)c1cccc(C(F)(F)F)n1)C2 [Example 2AH, ((4aR,8aS)-1-(4-fluorophenyl)-6-((6-(trifluoromethyl)pyridin-2-yl)sulfonyl)-4,4a,5,6,7,8,8a,9-octahydro-1H-pyrazolo[3,4-g]isoquinolin-4a-yl)(thiazol-4-yl)methanone]	9.00 to 9.30	> 7.70
Cn1ncc(S(=O)(=O)N2CC[C@H]3Cc4c(cnn4-c4ccc(F)cc4)C[C@]3(C(=O)c3cscn3)C2)n1 [Example 2AI, ((4aR,8aS)-1-(4-fluorophenyl)-6-((2-methyl-2H-1,2,3-triazol-4-yl)sulfonyl)-4,4a,5,6,7,8,8a,9-octahydro-1H-pyrazolo[3,4-g]isoquinolin-4a-yl)(thiazol-4-yl)methanone]	< 9.00	7.00 to 7.70
Cn1nccc1S(=O)(=O)N1CC[C@H]2Cc3c(cnn3-c3ccc(F)cc3)C[C@]2(C(=O)c2cc(C(F)(F)F)ccn2)C1 [Example 2J, ((4aR,8aS)-1-(4-fluorophenyl)-6-((1-methyl-1H-pyrazol-5-yl)sulfonyl)-4,4a,5,6,7,8,8a,9-octahydro-1H-pyrazolo[3,4-g]isoquinolin-4a-yl)(4-(trifluoromethyl)pyridin-2-yl)methanone]	< 9.00	7.00 to 7.70
CC(C)n1ncc(S(=O)(=O)N2CC[C@H]3Cc4c(cnn4-c4ccc(F)cc4)C[C@]3(C(=O)c3ccccn3)C2)n1 [Example 2N, ((4aR,8aS)-1-(4-fluorophenyl)-6-((2-isopropyl-2H-1,2,3-triazol-4-yl)sulfonyl)-4,4a,5,6,7,8,8a,9-octahydro-1H-pyrazolo[3,4-g]isoquinolin-4a-yl)(pyridin-2-yl)methanone]	> 9.30	> 7.70
N#Cc1cccc(S(=O)(=O)N2CC[C@H]3Cc4c(cnn4-c4ccc(F)cc4)C[C@]3(C(=O)c3ccccn3)C2)c1 [Example 2T, 3-(((4aR,8aS)-1-(4-fluorophenyl)-4a-picolinoyl-4a,5,7,8,8a,9-hexahydro-1H-pyrazolo[3,4-g]isoquinolin-6(4H)-yl)sulfonyl)benzonitrile]	< 9.00	7.00 to 7.70
CN1CCOc2cc(S(=O)(=O)N3CC[C@H]4Cc5c(cnn5-c5ccc(F)cc5)C[C@]4(C(=O)c4ccccn4)C3)cnc21 [Example 2V, ((4aR,8aS)-1-(4-fluorophenyl)-6-((4-methyl-3,4-dihydro-2H-pyrido[3,2-b][1,4]oxazin-7-yl)sulfonyl)-4,4a,5,6,7,8,8a,9-octahydro-1H-pyrazolo[3,4-g]isoquinolin-4a-yl)(pyridin-2-yl)methanone]	< 9.00	7.00 to 7.70
O=C(c1ccccn1)[C@]12Cc3cnn(-c4ccc(F)cc4)c3C[C@@H]1CCN(S(=O)(=O)c1cccc(C(F)(F)F)n1)C2 [Example 2Q, ((4aR,8aS)-1-(4-fluorophenyl)-6-((6-(trifluoromethyl)pyridin-2-yl)sulfonyl)-4,4a,5,6,7,8,8a,9-octahydro-1H-pyrazolo[3,4-g]isoquinolin-4a-yl)(pyridin-2-yl)methanone]	9.00 to 9.30	> 7.70
CCCn1ncc(S(=O)(=O)N2CC[C@H]3Cc4c(cnn4-c4ccc(F)cc4)C[C@]3(C(=O)c3cscn3)C2)n1 [Example 2S, ((4aR,8aS)-1-(4-fluorophenyl)-6-((2-propyl-2H-1,2,3-triazol-4-yl)sulfonyl)-4,4a,5,6,7,8,8a,9-octahydro-1H-pyrazolo[3,4-g]isoquinolin-4a-yl)(thiazol-4-yl)methanone]	> 9.30	7.00 to 7.70
CCn1ncc(S(=O)(=O)N2CC[C@H]3Cc4c(cnn4-c4ccc(F)cc4)C[C@]3(C(=O)c3cscn3)C2)n1 [Example 2AK, ((4aR,8aS)-6-((2-ethyl-2H-1,2,3-triazol-4-yl)sulfonyl)-1-(4-fluorophenyl)-4,4a,5,6,7,8,8a,9-octahydro-1H-pyrazolo[3,4-g]isoquinolin-4a-yl)(thiazol-4-yl)methanone]		> 7.70

Reference: patent US12139486B2, “Octahydro fused azadecalin glucocorticoid receptor modulators” (Corcept Therapeutics, Inc., priority 2013, dated 2024)
